Here are results for 5 molecules from US8673949B2 (Bristol-Myers Squibb Company, priority 2008, dated 2014).

Series [1] has as its system PrP T44 Tau transgenic mice. The note with it: treatment for 3 months; cited from earlier work.
Another series can be described thus: in vivo. The settings on record: nude, mouse, iv.
The conditions of series [2]: mouse, in vivo, iv; for Brain-to-Liver Ratio: nude, 12 mg/kg.
Series [3] in a line: Plasma, brain and liver levels after bolus IV administration in nude mice.
The test system of series [4] is paclitaxel-induced peripheral neuropathy. The note with it: rats; cited from earlier work.
Series [5] is described as follows: Plasma, brain and liver levels after oral gavage in C57BL/6 mice. It is filed as in vivo, mouse. The note with it: C57BL/6 mice; for Brain/Liver Ratio / Kp at 1 h / concentration at 1 h / concentration at 1 hr: 1 hr; for Kp at 1 h: brain and plasma. The source says:
Below, we first report the experimental detail for preparation and isolation of Compound III, and then the biological, in vivo data is described.

The conditions of series [6]: bolus IV 5 mpk, cited from earlier work; for Brain conc / Plasma conc: WO 03/074053 data converted to nM; for Brain-to-plasma Ratio: WO 03/074053 data.

Several values for one entry are separate records, joined by “and”; a condition that tells them apart may be missing. Identical values can stand only once. Like-named read-outs stand apart in the source and are kept apart here.

As to `CC(=O)O[C@H]1C(=O)[C@@]2(C)[C@H]([C@H](OC(=O)c3ccccc3)[C@]3(O)C[C@H](OC(=O)[C@H](O)[C@@H](NC(=O)c4ccccc4)c4ccccc4)C(C)=C1C3(C)C)[C@]1(OC(C)=O)CO[C@@H]1C[C@@H]2O` [Paclitaxel, paclitaxel], in series [1], the “Tau pathology (spheroids)” value is recorded as “unaffected”; the “microtubule numbers and axonal transport in the ventral roots of the spinal cord” value is “increased microtubule numbers and axonal transport”; the motor dysfunction result was “reduced motor dysfunction”. Further, in “in vivo” (4 mg/kg, Brain conc), the concentration at 1 h came out at 47 nM, the concentration at 6 h turned out to be 16 nM and the concentration at 24 h amounted to 15 nM. In the series “in vivo” (4 mg/kg, Brain-to-plasma Ratio), the Kp at 1 h came to 0.1, the Kp at 6 h was found to be 0.37 and the Kp at 24 h was 1.25. In the series “in vivo” (4 mg/kg, Plasma conc), this molecule displayed a concentration at 1 h of 447 nM, a concentration at 6 h of 43 nM and a concentration at 24 h of 12 nM. The brain levels result in series [2] (4 mg/kg) is recorded as “low”.

Regarding `C/C(=C\c1csc(CN)n1)[C@@H]1C[C@@H]2O[C@]2(C)CCC[C@H](C)[C@H](O)[C@@H](C)C(=O)C(C)(C)[C@@H](O)CC(=O)O1` [Compound II], the “Brain-to-Liver Ratio” value in series [3] (bolus IV 1 mpk, 6 hr) is on record as 0.01; in series [3] (bolus IV 1 mpk, 24 hr), 0.02. In series [3] (bolus IV, particularly at later times), the “brain levels relative to peripheral tissue (ratio of brain-to-liver compound levels)” value is “modest brain levels relative to peripheral tissue”. The concentration at 6 h is 6.8 nM in series [3] (nude, mouse, in vivo, iv, 1 mg/kg, Brain conc, bolus IV 1 mpk, 6 hr) and 3 nM in series [3] (nude, mouse, in vivo, iv, 1 mg/kg, Plasma conc, bolus IV 1 mpk, 6 hr). Besides, the concentration at 24 h in series [3] (nude, mouse, in vivo, iv, 1 mg/kg, Brain conc, bolus IV 1 mpk, 24 hr) was determined as 1.3 nM; in series [3] (nude, mouse, in vivo, iv, 1 mg/kg, Plasma conc, bolus IV 1 mpk, 24 hr) it was 1 nM. Further, in series [3] (nude, mouse, in vivo, iv, 1 mg/kg, Brain-to-plasma Ratio, bolus IV 1 mpk, 6 hr), the Kp at 6 h was determined as 2.1. In addition, in series [3] (nude, mouse, in vivo, iv, 1 mg/kg, Brain-to-plasma Ratio, bolus IV 1 mpk, 24 hr), the Kp at 24 h was 1.2.

As for NAP: a peptide of sequence NAPVSIPQ, the “protection against paclitaxel-induced peripheral neuropathy” value in series [4] was “able to protect against paclitaxel-induced peripheral neuropathy”.

Take `C/C(=C\c1csc(C)n1)[C@@H]1C[C@@H]2O[C@]2(C)CCC[C@H](C)[C@H](O)[C@@H](C)C(=O)C(C)(C)[C@@H](O)CC(=O)N1` [Ixabepilone, (1S,3S,7S,10R,11S,12S,16R)-7,11-dihydroxy-8,8,10,12,16-pentamethyl-3-[(1E)-1-methyl-2-(2-methyl-4-thiazolyl)ethenyl]-17-oxa-4-azabicyclo[14.1.0]heptadecane-5,9-dione]: in “in vivo” (12 mg/kg), the Kp at 1 h worked out at 0.73, the Kp at 2 h was found to be 2.1, the Kp at 6 h was 7 and the Kp at 24 h was determined as 30. Further, in the series “in vivo” (12 mg/kg), the Kp at […] is 0.05 and 0.16. For the same molecule, in the series “in vivo” (12 mg/kg, Brain conc), the concentration at 1 h was found to be 284 nM, the concentration at 2 h was 360 nM, the concentration at 6 h turned out to be 371 nM and the concentration at 24 h stood at 236 nM. In addition, in the series “in vivo” (12 mg/kg, Plasma conc), the concentration at 1 h turned out to be 390 nM, the concentration at 2 h came to 171 nM, the concentration at 6 h turned out to be 53 nM and the concentration at 24 h worked out at 8 nM. Besides, the “brain levels relative to peripheral tissue (ratio of brain-to-liver compound levels)” value in series [2] is recorded as “modest brain levels relative to peripheral tissue”. In addition, the “Brain-to-Liver Ratio” value in series [2] (1 h) is 0.07. Further, the “Brain-to-Liver Ratio” value in series [2] (2 h) is given as 0.11. Moreover, in series [2] (6 h), the “Brain-to-Liver Ratio” value is 0.30. Moreover, the “Brain-to-Liver Ratio” value in series [2] (24 h) was found to be 1.2.

Regarding `CCC[C@H]1C(=O)C(C)(C)[C@@H](O)CC(=O)O[C@H](/C(C)=C/c2csc(C)n2)CC=C(C)CCC[C@H](C)[C@@H]1O` (single isomer, unassigned) [Compound III, 4,8-dihydroxy-16-(1-methyl-2-(2-methyl-4-thiazolyl)-ethenyl)-1-oxa-7-(1-propyl)-5,5,9,13-tetramethyl-cyclohexadec-13-ene-2,6-dione], in series [5] (oral 10 and 35 mpk, no measureable brain levels at 24 h), the brain retention entry was “poor brain retention”. Also, in series [5] (oral 35 mpk, FIG. 9), the “brain half life compared with epothilone D” value is reported as “significantly shorter than epothilone D”. Besides, the “Brain/Liver Ratio” value in series [5] (oral gavage 10 mpk) is on record as 0.1; in series [5] (oral gavage 35 mpk) it was 0.4. Moreover, the Brain conc entry in series [5] (oral gavage 10 mpk, 5 hr) is listed as “(3.7 nM)”; in series [5] (oral gavage 10 mpk, 7 hr), “(3.7 nM)”; in series [5] (oral gavage 10 mpk, 24 hr), “(3.7 nM)”; in series [5] (oral gavage 35 mpk, 24 hr) it was “<LLQ”; in series [6] (0.17 hr), 580 nM; in series [6] (0.67 hr), 1150 nM. Further, the Plasma conc result in series [5] (oral gavage 10 mpk, 24 hr) is “(0.2 nM)”; in series [6] (0.17 hr) it was 1540 nM; in series [6] (0.67 hr), 580 nM. The Kp at 1 h in series [5] (mouse, 10 mg/kg, oral gavage 10 mpk, read-out: Brain/Plasma Ratio) came to 0.8; in series [5] (mouse, 35 mg/kg, oral gavage 35 mpk, read-out: Brain/Plasma Ratio) it was 2.3. Besides, the concentration at 1 h in series [5] (mouse, brain, 10 mg/kg, oral gavage 10 mpk, read-out: Brain conc) stood at 9.6 nM; in series [5] (mouse, plasma, 10 mg/kg, oral gavage 10 mpk, read-out: Plasma conc), 12.3 nM. Further, the concentration at 1 hr in series [5] (mouse, brain, 35 mg/kg, oral gavage 35 mpk, read-out: Brain conc) came out at 67.7 nM; in series [5] (mouse, plasma, 35 mg/kg, oral gavage 35 mpk, read-out: Plasma conc) it was 47.7 nM. Further, the concentration at 5 hr in series [5] (mouse, brain, 35 mg/kg, oral gavage 35 mpk, 5 hr, read-out: Brain conc) turned out to be 4.6 nM; in series [5] (mouse, plasma, 10 mg/kg, oral gavage 10 mpk, 5 hr, read-out: Plasma conc) it was 1.3 nM; in series [5] (mouse, plasma, 35 mg/kg, oral gavage 35 mpk, 5 hr, read-out: Plasma conc) it was 3 nM. The Kp at 5 h in series [5] (mouse, brain/plasma, 35 mg/kg, oral gavage 35 mpk, 5 hr, read-out: Brain/Plasma Ratio) amounted to 1.4. Moreover, in series [5] (mouse, plasma, 10 mg/kg, oral gavage 10 mpk, 7 hr, read-out: Plasma conc), the concentration at 7 hr worked out at 1.2 nM. Besides, the concentration at 24 hr in series [5] (mouse, plasma, 35 mg/kg, oral gavage 35 mpk, 24 hr, read-out: Plasma conc) was determined as 0.7 nM. Also, the “Brain-to-plasma Ratio” value was 0.4 in series [6] (0.17 hr), 2 in series [6] (0.67 hr) and 1.3 in series [6] ([…]).
